# Earlier results in patent US20190365933A1, “SOLVENT-FREE GADOLINIUM CONTRAST AGENTS” (Inventure, LLC, priority 2016, published 2019).
# Where two headings read alike, the source gives them in different places.
Compound,"Conditional stability constant at pH 7.4 (log Keff) (complex of gadolinium with the named ligand, log value)","Thermodynamic stability constants pH 14 (log KGdL) (complex of gadolinium with the named ligand, pH 14, ligand entirely deprotonated, log value)",Conditional stability constant at pH 7.4 (log Keff),Thermodynamic stability constants pH 14 (log KGdL) (pH 14)
"O=C(O)CN1CCN(CC(=O)O)CCN(CC(=O)O)CCN(CC(=O)O)CC1 [DOTA, 1,4,7,10-tetraazacyclododecane-1,4,7,10-tetraacetic acid]",17.2,24.7,,
O=C(O)CNC(=O)CN1CCN(CC(=O)NCC(=O)O)CCN(CC(=O)NCC(=O)O)CCN(CC(=O)NCC(=O)O)CC1 [DOTA-(gly)4],,,12.7,14.54
